# According to ChEMBL document CHEMBL2401643, “The discovery of potent selective NPY Y(2) antagonists” (Bioorg Med Chem Lett, 2013):
# pIC50: −log10 of the molar value. Calls of active or inactive are those of the source. The calls are words filed in the database; no cut-off is given here.
# Experiments:
# [1] = molecular target: T1, Neuropeptide Y receptor type 2 (Homo sapiens) (UniProt P49146); assay: (§1) Displacement of [125I]PYY from NPY-Y2 receptor in human KAN-TS cell membranes after 1 hr by scintillation counting analysis
# T1 sequence (whole entry): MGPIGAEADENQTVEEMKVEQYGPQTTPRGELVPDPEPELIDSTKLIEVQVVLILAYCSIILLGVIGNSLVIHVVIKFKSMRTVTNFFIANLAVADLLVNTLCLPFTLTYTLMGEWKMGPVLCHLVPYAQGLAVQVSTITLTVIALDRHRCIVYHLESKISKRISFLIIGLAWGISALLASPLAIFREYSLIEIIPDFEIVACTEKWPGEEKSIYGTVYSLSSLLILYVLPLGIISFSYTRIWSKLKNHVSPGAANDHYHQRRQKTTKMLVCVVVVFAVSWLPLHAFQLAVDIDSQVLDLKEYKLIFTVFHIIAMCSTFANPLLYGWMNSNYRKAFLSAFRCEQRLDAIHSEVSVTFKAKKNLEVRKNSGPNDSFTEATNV
# [2] = molecular target: T2, Microsomal triglyceride transfer protein large subunit (Homo sapiens, UniProt P55157); assay: Inhibition of MTP (unknown origin)
# T2 sequence (P55157 whole entry): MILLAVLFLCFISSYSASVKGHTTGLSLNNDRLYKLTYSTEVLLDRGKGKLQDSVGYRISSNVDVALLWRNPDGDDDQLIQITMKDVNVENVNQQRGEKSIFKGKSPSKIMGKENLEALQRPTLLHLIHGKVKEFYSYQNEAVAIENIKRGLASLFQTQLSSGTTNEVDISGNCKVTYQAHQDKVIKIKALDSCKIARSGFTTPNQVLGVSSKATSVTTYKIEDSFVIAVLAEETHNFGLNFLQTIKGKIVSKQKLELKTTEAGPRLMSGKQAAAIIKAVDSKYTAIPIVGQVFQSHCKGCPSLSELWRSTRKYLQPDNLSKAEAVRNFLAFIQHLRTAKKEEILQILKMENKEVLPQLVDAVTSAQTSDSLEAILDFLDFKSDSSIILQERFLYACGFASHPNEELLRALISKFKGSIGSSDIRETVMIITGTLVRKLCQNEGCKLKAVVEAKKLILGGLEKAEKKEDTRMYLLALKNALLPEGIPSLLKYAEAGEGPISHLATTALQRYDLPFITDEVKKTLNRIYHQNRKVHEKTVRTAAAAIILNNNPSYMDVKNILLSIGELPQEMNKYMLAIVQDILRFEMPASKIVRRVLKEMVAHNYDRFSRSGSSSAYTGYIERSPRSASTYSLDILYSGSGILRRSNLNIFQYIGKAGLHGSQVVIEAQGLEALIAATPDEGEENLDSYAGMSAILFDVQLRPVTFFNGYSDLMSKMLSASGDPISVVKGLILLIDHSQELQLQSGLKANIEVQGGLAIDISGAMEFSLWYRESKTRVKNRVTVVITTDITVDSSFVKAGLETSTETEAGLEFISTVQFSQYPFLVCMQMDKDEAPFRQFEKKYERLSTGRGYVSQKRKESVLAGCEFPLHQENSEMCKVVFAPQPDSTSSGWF
# [3] = Metabolic stability in rat liver microsomes assessed as compound remaining after 15 mins; assay type: ADME, Microsome; conditions: read-out: Stability
# [4] = Metabolic stability in human liver microsomes assessed as compound remaining after 15 mins; assay type: ADME, Microsome; conditions: read-out: Stability
# [5] = molecular target: T3, Neuropeptide Y receptor type 2 (Homo sapiens, UniProt P49146); assay: as §1
# T3 sequence (P49146 whole entry): T1 sequence (whole entry)
# Rattus norvegicus = assay: Receptor occupancy in Sprague-Dawley rat brain at 10 mg/kg, sc by LC/MS analysis; assay type: functional
# [6] = molecular target: T3, Neuropeptide Y receptor type 2; assay: Antagonist activity at NPY-Y2 receptor in human KAN-TS cell membranes assessed as inhibition of PYY-stimulated [35S]GTPgammaS binding preincubated for 30 mins prior to [35S]GTPgammaS-treatment measured after 1 hr; assay type: functional; conditions: read-out: pA2 (converted)
# [7] = molecular target: T2, Microsomal triglyceride transfer protein large subunit; assay: Inhibition of MTP (unknown origin)-mediated triglyceride transfer from donor to acceptor vesicles preincubated for 5 mins followed by enzyme addition by [14C]-counting analysis
SMILES,remaining at 0.25 h [3] [%],remaining at 0.25 h [4] [%],pIC50 [5],other results
CCNC(=O)C(c1ccccc1)C1CCN(c2ccc(NS(=O)(=O)c3ccccc3-c3ccccc3)cc2F)CC1 (centres undefined),–,–,–,Activity [1]: inactive
CCN(CC)C(=O)C(c1ccccc1)N1CCN(c2ccc(NC(=O)c3ccccc3-c3cccnc3)cc2F)CC1 (centres undefined),1.7,1.4,–,pIC50 [2]: 6.15
CCNC(=O)C(c1ccccc1)C1CCN(c2ccc(C(=O)Nc3ccccc3-c3ccccc3)cc2F)CC1 (centres undefined),–,–,7.35,–
CCNC(=O)C(c1ccccc1)C1CCN(c2ccc(NC(=O)c3ccccc3-c3ccsc3)cc2F)CC1 (centres undefined),–,–,7.15,–
CCNC(=O)C(c1ccccc1)C1CCN(c2ccc(NC(=O)c3c(C)noc3C)cc2F)CC1 (centres undefined),–,–,6.32,–
CCN(CC)C(=O)C(c1ccccc1)C1CCN(c2ccc(NC(=O)c3c(C)noc3C)cc2F)CC1 (centres undefined),3.3,5.3,7.43,Occ (Rattus norvegicus; route subcutaneous): 50%; Kb [6]: 31.6 nM; pIC50 [7]: < 5.00
CCNC(=O)C(c1ccccc1)C1CCN(c2ccc(NC(=O)c3ccccc3Br)cc2F)CC1 (centres undefined),–,–,6.18,–
CCNC(=O)C(c1ccccc1)C1CCN(c2ccc(NC(=O)Nc3c(C)noc3C)cc2F)CC1 (centres undefined),–,–,–,Occ (Rattus norvegicus): inactive; Kb [6]: 3.98 nM; pIC50 [7]: < 5.00
CCNC(=O)C(c1ccccc1)C1CCN(c2ccc(NC(=O)Nc3ccccc3-c3ccccc3)cc2F)CC1 (centres undefined),–,–,7.57,–

# More lines, in order of rising pIC50 [5], values ahead:
remaining at 0.25 h [3] [%],remaining at 0.25 h [4] [%],pIC50 [5],SMILES,other results
–,–,7.62,CCNC(=O)C(c1ccccc1)C1CCN(c2ccc(NC(=O)c3ccccc3-c3cccnc3)cc2F)CC1 (centres undefined),–
17,1.5,7.92,CCN(CC)C(=O)C(c1ccccc1)C1CCN(c2ccc(NC(=O)Nc3c(C)noc3C)cc2F)CC1 (centres undefined),Occ (Rattus norvegicus): inactive; Kb [6]: 2 nM; pIC50 [7]: < 5.00
–,–,7.92,CCNC(=O)C(c1ccccc1)C1CCN(c2ccc(NC(=O)c3ccccc3-c3ccccc3)cc2F)CC1 (centres undefined),–
98,73,8.15,CCN(CC)C(=O)C(c1ccccc1)C1CCN(c2ccc(NC(=O)c3ccccc3-c3cccnc3)cc2F)CC1 (centres undefined),–
